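Following 48 hours of exposure in 96-well plates, responses at five concentrations were used to interpolate endpoints linearly. At the GI50, growth is halved.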 The source made the active and inactive calls. Cut-off read from the data, not from the text of the source: active = GI50 up to about 1.1 µM and inactive = higher.
How the values were obtained:
Experiment in all cases: growth of human tumour cells (NCI), 48 h
SF-295 = tested on: SF-295
NCI-H460 = tested on: NCI-H460
SN12C = tested on: SN12C
HCT-15 = tested on: HCT-15
U-251 = tested on: U-251
UACC-257 = tested on: UACC-257
UACC-62 = tested on: UACC-62
ACHN = tested on: ACHN
HCC 2998 = tested on: HCC 2998
SF-268 = tested on: SF-268
SK-MEL-2 = tested on: SK-MEL-2
DMS-273 = tested on: DMS-273
SK-OV-3 = tested on: SK-OV-3
Malme-3M = tested on: Malme-3M
KM12 = tested on: KM12
NCI-H522 = tested on: NCI-H522
SK-MEL-5 = tested on: SK-MEL-5
M14 = tested on: M14
DU-145 = tested on: DU-145
BT-549 = tested on: BT-549

| SMILES | GI50 (SF-295) | GI50 (NCI-H460) | GI50 (SN12C) | GI50 (HCT-15) | GI50 (U-251) | GI50 (UACC-257) | GI50 (UACC-62) | GI50 (ACHN) | GI50 (HCC 2998) | GI50 (SF-268) | GI50 (SK-MEL-2) | GI50 (DMS-273) | GI50 (SK-OV-3) | GI50 (Malme-3M) | GI50 (KM12) | GI50 (NCI-H522) | GI50 (SK-MEL-5) | GI50 (M14) | GI50 (DU-145) | GI50 (BT-549) |
| --- | --- | --- | --- | --- | --- | --- | --- | --- | --- | --- | --- | --- | --- | --- | --- | --- | --- | --- | --- | --- |
| N#Cc1c(-c2ccccc2)c(-c2ccccc2)cc2c(=O)c3ccc(Cl)cc3[nH]c12 | > 100 µM (inactive) | > 100 µM (inactive) | > 100 µM (inactive) | > 100 µM | > 100 µM (inactive) | > 100 µM (inactive) | > 100 µM (inactive) | > 100 µM (inactive) | > 100 µM (inactive) | > 100 µM (inactive) | > 100 µM (inactive) | > 100 µM (inactive) | > 100 µM (inactive) | > 100 µM (inactive) | – | – | – | – | – | – |
| N#Cc1ccc(Cc2ccccn2)cc1Cl | > 100 µM (inactive) | > 100 µM (inactive) | > 100 µM (inactive) | – | > 100 µM (inactive) | > 100 µM (inactive) | > 100 µM (inactive) | > 100 µM (inactive) | – | > 100 µM (inactive) | > 100 µM (inactive) | > 100 µM (inactive) | > 100 µM (inactive) | > 100 µM (inactive) | > 100 µM (inactive) | > 100 µM (inactive) | > 100 µM (inactive) | – | – | – |
| CC1=CCC23C(C1)OC(Br)(C=CC2(C)O)C3(C)C (centres undefined) | > 100 µM (inactive) | > 100 µM (inactive) | > 100 µM (inactive) | – | – | > 100 µM (inactive) | > 100 µM (inactive) | > 100 µM (inactive) | > 100 µM (inactive) | > 100 µM (inactive) | > 100 µM (inactive) | > 100 µM (inactive) | – | > 100 µM (inactive) | > 100 µM (inactive) | – | > 100 µM (inactive) | – | – | – |
| COC1=CC(=O)C2(C=C1OC)OC[C@H]1Oc3c(ccc4c3C=CC(C)(C)O4)C(=O)[C@H]12 (some centres undefined) | – | 49.2 µM (inactive) | – | – | 56.2 µM (inactive) | 37.8 µM (inactive) | 47.1 µM (inactive) | 44.8 µM (inactive) | 86.5 µM (inactive) | – | 45.2 µM (inactive) | 35.1 µM (inactive) | 70.1 µM (inactive) | 57 µM (inactive) | 40.3 µM (inactive) | 16.7 µM (inactive) | – | 41.7 µM (inactive) | – | – |
| CC1=C(O)C(=O)C[C@]2(C)[C@H]3CC=C4[C@@H]5CC(C)(C)CC[C@@H]5C(=O)[C@H](O)[C@@]4(C)[C@]3(C)CC[C@@H]12 | 37.8 µM (inactive) | > 50 µM (inactive) | > 50 µM (inactive) | > 50 µM | 27.5 µM (inactive) | > 50 µM (inactive) | > 50 µM (inactive) | 41.4 µM (inactive) | 20.4 µM (inactive) | > 50 µM (inactive) | 37.4 µM (inactive) | – | > 50 µM (inactive) | > 50 µM (inactive) | > 50 µM (inactive) | 16.6 µM (inactive) | 34.8 µM (inactive) | > 50 µM (inactive) | > 50 µM (inactive) | > 50 µM (inactive) |
| COc1ccc(C(=C(C#N)C#N)c2ccc(OC)cc2)cc1 | > 100 µM (inactive) | > 100 µM (inactive) | > 100 µM (inactive) | > 100 µM | > 100 µM (inactive) | > 100 µM (inactive) | > 100 µM (inactive) | > 100 µM (inactive) | > 100 µM (inactive) | > 100 µM (inactive) | > 100 µM (inactive) | > 100 µM (inactive) | – | – | > 100 µM (inactive) | 30 µM (inactive) | – | > 100 µM (inactive) | – | – |
| C[n+]1c2ccccc2n2c3ccccc3c(NCCCN3CCOCC3)c(C#N)c21 | 2.8 µM (inactive) | 0.684 µM (active) | 0.597 µM (active) | 4.65 µM | 1.52 µM (inactive) | 2.99 µM (inactive) | 3.03 µM (inactive) | 2.61 µM (inactive) | 1.27 µM (inactive) | 1.11 µM (active) | 1.91 µM (inactive) | – | 2.5 µM (inactive) | 2.05 µM (inactive) | 1.61 µM (inactive) | 0.652 µM (active) | 2 µM (inactive) | 2.4 µM (inactive) | 2.13 µM (inactive) | 12 µM (inactive) |
| Cc1cc([N+](=O)[O-])c(C)c2c1[nH]c1ccc(O)cc12 | > 100 µM (inactive) | > 100 µM (inactive) | > 100 µM (inactive) | 50 µM | – | > 100 µM (inactive) | – | 99.8 µM (inactive) | > 100 µM (inactive) | > 100 µM (inactive) | > 100 µM (inactive) | > 100 µM (inactive) | – | > 100 µM (inactive) | > 100 µM (inactive) | > 10 µM (inactive) | > 100 µM (inactive) | > 100 µM (inactive) | – | – |
| CN1C(=O)[C@H](c2c[nH]c3ccccc23)[C@H](c2c[nH]c3ccccc23)C1=O | 26.1 µM (inactive) | 23.9 µM (inactive) | 44.2 µM (inactive) | 24.8 µM | 35.4 µM (inactive) | 29.5 µM (inactive) | 22.2 µM (inactive) | 23.8 µM (inactive) | > 52.5 µM (inactive) | 33.3 µM (inactive) | 22.3 µM (inactive) | – | 38.2 µM (inactive) | 36.5 µM (inactive) | 36.1 µM (inactive) | 34.2 µM (inactive) | 22 µM (inactive) | 38.8 µM (inactive) | 48.3 µM (inactive) | 19.1 µM (inactive) |
| Cc1cc(=O)c2c([nH]1)NS(=O)(=O)NC2=O | > 100 µM (inactive) | – | > 100 µM (inactive) | > 100 µM | – | > 100 µM (inactive) | > 100 µM (inactive) | – | > 100 µM (inactive) | > 100 µM (inactive) | > 100 µM (inactive) | > 100 µM (inactive) | > 100 µM (inactive) | > 100 µM (inactive) | > 100 µM (inactive) | > 100 µM (inactive) | – | > 100 µM (inactive) | – | – |
| CC1=CC=C2c3ccccc3C=CN2C(=O)C1 | > 100 µM (inactive) | 53.2 µM (inactive) | 63.5 µM (inactive) | 45.9 µM | 60.4 µM (inactive) | 96.6 µM (inactive) | 84.9 µM (inactive) | 62.5 µM (inactive) | 56.6 µM (inactive) | 60.3 µM (inactive) | 22.4 µM (inactive) | – | > 100 µM (inactive) | > 100 µM (inactive) | 36.3 µM (inactive) | 43.3 µM (inactive) | 22.1 µM (inactive) | 62.1 µM (inactive) | 52 µM (inactive) | 18.9 µM (inactive) |
| Cc1cccc(/C=N/NC(=S)N2CCCCCC2)n1 | 0.331 µM (active) | 0.0977 µM (active) | 0.101 µM (active) | 0.049 µM | < 0.0417 µM (active) | 0.0418 µM (active) | 0.163 µM (active) | 0.142 µM (active) | 0.468 µM (active) | < 0.01 µM (active) | 0.546 µM (active) | – | 0.556 µM (active) | 0.313 µM (active) | 0.23 µM (active) | < 0.01 µM (active) | 0.0661 µM (active) | < 0.0271 µM (active) | 0.254 µM (active) | 0.512 µM (active) |
| COc1ccc(/C=C2\C(=O)Nc3ccccc32)cc1OC | > 100 µM (inactive) | 78.9 µM (inactive) | > 100 µM (inactive) | 53 µM | 28.9 µM (inactive) | > 100 µM (inactive) | > 100 µM (inactive) | > 100 µM (inactive) | – | > 100 µM (inactive) | > 100 µM (inactive) | 64.7 µM (inactive) | 32 µM (inactive) | > 100 µM (inactive) | 85.7 µM (inactive) | 79.3 µM (inactive) | 64.4 µM (inactive) | > 100 µM (inactive) | – | – |
| O=C1[C@@H]2C(c3ccccc3Br)=NO[C@@H]2C(=O)N1c1ccc(Cc2ccc(N3C(=O)[C@H]4C(c5ccccc5Br)=NO[C@H]4C3=O)cc2)cc1 | > 100 µM (inactive) | > 100 µM (inactive) | > 100 µM (inactive) | > 100 µM | > 100 µM (inactive) | > 100 µM (inactive) | > 100 µM (inactive) | > 100 µM (inactive) | > 100 µM (inactive) | > 100 µM (inactive) | > 100 µM (inactive) | > 100 µM (inactive) | > 100 µM (inactive) | > 100 µM (inactive) | > 100 µM (inactive) | – | > 100 µM (inactive) | > 100 µM (inactive) | – | – |
| O=C(N/C(=C\c1ccc(Cl)cc1)c1nc2ccccc2[nH]1)c1ccccc1 | – | 22.1 µM (inactive) | 21.9 µM (inactive) | 26.4 µM | 22.2 µM (inactive) | 19.2 µM (inactive) | 16 µM (inactive) | 27.5 µM (inactive) | – | 16.3 µM (inactive) | 19.1 µM (inactive) | 21.1 µM (inactive) | 37.1 µM (inactive) | 34 µM (inactive) | 16.8 µM (inactive) | 12.7 µM (inactive) | 20.1 µM (inactive) | 18.7 µM (inactive) | – | – |
| CN1C=Cc2nccc3cc4c(c1c23)OCO4 | 1.86 µM (inactive) | 0.422 µM (active) | 1.64 µM (inactive) | 7.59 µM | 3.09 µM (inactive) | 2.53 µM (inactive) | 1.36 µM (inactive) | 1.56 µM (inactive) | 4.03 µM (inactive) | 3.06 µM (inactive) | 3.18 µM (inactive) | – | 8.39 µM (inactive) | 0.118 µM (active) | 2.59 µM (inactive) | 0.776 µM (active) | 2.06 µM (inactive) | 3.56 µM (inactive) | 5.78 µM (inactive) | 1.87 µM (inactive) |
| NC(=O)/N=C1/CCC2C3CCCC2C13 | > 100 µM (inactive) | > 100 µM (inactive) | > 100 µM (inactive) | – | > 100 µM (inactive) | > 100 µM (inactive) | > 100 µM (inactive) | > 100 µM (inactive) | > 100 µM (inactive) | > 100 µM (inactive) | 60.7 µM (inactive) | > 100 µM (inactive) | > 100 µM (inactive) | – | > 100 µM (inactive) | > 100 µM (inactive) | > 100 µM (inactive) | > 100 µM (inactive) | – | – |
